Experimental data reported in patent US12492182B2, “Hydroxytriazine compounds and pharmaceutical use thereof” (Japan Tobacco Inc., priority 2015, dated 2025).
Read-outs that look alike come from different tables or passages of the source.

Columns and labels:
human mPGES-1 = target: T1, human mPGES-1 (Homo sapiens, UniProt O14684); test: Evaluation of human mPGES-1 enzyme inhibitory activity (HTRF measurement of PGE2); type: biochemical; conditions: IC50 value; microsome fraction of CHO-S cells expressing human mPGES-1, PGH2 substrate, PGE2 by HTRF; read-out: humans mPGES-1 enzyme inhibitory activity
T1 construct: made in house; host or cells: Chinese hamster ovary-derived cells (FreeStyle CHO-S), transient transfection of pcDNA3.1(+)/human mPGES-1; microsome fraction
T1 sequence (O14684 1-152): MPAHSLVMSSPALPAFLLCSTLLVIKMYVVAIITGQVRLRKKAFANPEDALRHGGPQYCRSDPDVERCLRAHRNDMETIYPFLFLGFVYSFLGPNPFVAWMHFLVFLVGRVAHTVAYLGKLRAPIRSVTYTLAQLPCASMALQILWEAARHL
Outline: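 Enzyme source was a microsome fraction from CHO-S cells transfected with human mPGES-1, diluted to 5 μg/mL protein in reduced GSH (12.5 mmol/L KPB), preincubated with compound for 10 min at room temperature with 2% final DMSO. Reaction started with PGH2 and run 45 seconds at room temperature. PGE2 measured by HTRF.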

A549 cell = test: Evaluation of PGE2 production inhibitory action using A549 cell (IL-1β stimulated); type: cell-based, human; conditions: recombinant human IL-1β stimulation, read-out: cell PGE2 production inhibitory activity (IC50 value)
Outline: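 A549 cells (human lung cancer) in F-12K with 2% FBS were preincubated with test article for 30 min, then stimulated with IL-1β (1 ng/mL final) for 18 hr at 37 °C; 0.5% DMSO final. Supernatant PGE2 was measured by HTRF against a standard curve; inhibition is relative to vehicle and unstimulated blank wells.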

[1] = Measurement of solubility in Britton-Robinson buffer solution (pH 8.5) containing 0.5 W/V % polysorbate 80; type: physicochemical; conditions: Britton-Robinson buffer pH 8.5 containing 0.5 W/V % polysorbate 80, 20° C., 18 hr
Protocol: Experimental Example 5: Measurement of Solubility
(2) Britton-Robinson Buffer Solution (pH 8.5) Containing 0.5 W/V % Polysorbate 80
The test article was weighted in glass microtube, and dispersed in Britton-Robinson buffer solution (pH 8.5, 1.5 mL) containing 0.5 W/V % polysorbate 80 to prepare a suspension. The suspension was shaked at 20° C. for 18 hr, and filtered through a membrane filter (0.45 μm), and the filtrate was used as a sample.
(3) Preparation of Standard Solution and Sample Solution, and Measurement of Solubility
Sample solution was prepared by appropriately diluting sample with a mixture of water/acetonitrile (1:1). Standard solution was prepared by precisely weighting the test article, and then diluting the test article with a mixture of water/acetonitrile (1:1). The standard solution and sample solution were analyzed by liquid chromatography, and the test article content of the sample solution was calculated according to external standard method, based on which the solubility was determined.

Structure (SMILES) | IC50 (human mPGES-1) [nM] | IC50 (A549 cell; Homo sapiens, A549, A549 cell) [nM] | 0.5% polysorbate 80 solubility (%) at pH 8.5 [1] [%] | IC50 (A549 cell; A549 cell) [nM]
CO[C@](C)(C(=O)NCc1ccc(Cl)c(-c2nc(O)nc(-c3cccc(C(C)(C)C)c3)n2)c1)C(F)(F)F [Example 66, (R)—N-{3-[4-(3-tert-butylphenyl)-6-hydroxy-1,3,5-triazin-2-yl]-4-chlorobenzyl}-3,3,3-trifluoro-2-methoxy-2-methylpropionamide] | 0.7 | 3.8 | 0.136 | 
CC(C)c1cccc(-c2nc(O)nc(-c3cc(CNC(=O)C4(C(F)(F)F)CCCCC4)ccc3Cl)n2)c1 [Example 71, 1-trifluoromethylcyclohexanecarboxylic acid 4-chloro-3-[4-hydroxy-6-(3-isopropylphenyl)-1,3,5-triazin-2-yl]benzylamide] | 0.7 | 3.4 | 0.057 | 
CCC[C@@H](C)Oc1ccc(-c2nc(O)nc(-c3cc(CNC(=O)C(CC)(CC)OC)ccc3Cl)n2)cn1 [Example 79, 2-ethyl-N-(4-chloro-3-{4-hydroxy-6-[6-((R)-1-methylbutoxy)pyridin-3-yl]-1,3,5-triazin-2-yl}benzyl)-2-methoxybutanamide] | 4.6 | 2.6 | 0.157 | 
CCCCCCOc1ccc(-c2nc(O)nc(-c3cc(CNC(=O)C(C)(C)OC)ccc3Cl)n2)cn1 [Example 81, N-{4-chloro-3-[4-(6-hexyloxypyridin-3-yl)-6-hydroxy-1,3,5-triazin-2-yl]benzyl}-2-methoxy-2-methylpropionamide] | 2.1 | 5 | 0.071 | 
CC(C)(C)c1cccc(-c2nc(O)nc(-c3cc(CNC(=O)C4(C(F)(F)F)CCCCC4)ccc3Cl)n2)c1 [Example 107, 1-trifluoromethylcyclohexanecarboxylic acid 3-[4-(3-tert-butylphenyl)-6-hydroxy-1,3,5-triazin-2-yl]-4-chlorobenzylamide] | 2.6 | 2.1 | 0.032 | 
CCC[C@H](C)Oc1ccc(-c2nc(O)nc(-c3cc(CNC(=O)C(CC)(CC)CF)ccc3Cl)n2)cn1 [Example 131] | 2.9 | 1.9 | 0.109 | 
CCC(OC)(C(=O)NCc1ccc(Cl)c(-c2nc(O)nc(-c3ccc(Cl)c(C(C)C)c3)n2)c1)C(F)(F)F (stereo not shown) [Example 137] | 4.7 | 2.6 |  | 
CCC(OC)(C(=O)NCc1ccc(Cl)c(-c2nc(O)nc(-c3cccc(C4(C)CC4)c3)n2)c1)C(F)(F)F (stereo not shown) [Example 138] | 1.5 |  |  | 8.4
CCC(OC)(C(=O)NCc1ccc(Cl)c(-c2nc(O)nc(-c3ccc(Cl)c(C(C)C)c3)n2)c1)C(F)(F)F (stereo not shown) [Example 139] | 5.4 |  |  | 2.1
CCC[C@H](C)Oc1ccc(-c2nc(O)nc(-c3cc(CNC(=O)C4(C(F)(F)F)CCCC4)ccc3Cl)n2)cn1 [Example 140] | 10 | 0.8 |  | 
CCC[C@H](C)Oc1ccc(-c2nc(O)nc(-c3cc(CNC(=O)C4(CF)CCCCCC4)ccc3Cl)n2)cn1 [Example 141] | 14 | 3.8 |  | 
